According to PMC7070036, “An amber obligate active site-directed ligand evolution technique for phage display” (Nature Communications, 2020):
Where “and” joins values, the source holds several entries; their conditions need not be identical. Equal entries are not always repeated. Non-standard residues stand in square brackets, D forms with d. Residues, ends and D or L forms follow the SMILES beside them. Lys(thiomyristoyl) = CCCCCCCCCCCCCC(=S)NCCCC[C@H](N)C(=O)O

Tests used:
[1] = target: T1, SIRT1 (Homo sapiens, UniProt Q96EB6); assay: Continuous fluorogenic sirtuin inhibition assay, SIRT1; type: biochemical; settings: mean ± SD of two independent experiments
T1 sequence (Q96EB6 1-747): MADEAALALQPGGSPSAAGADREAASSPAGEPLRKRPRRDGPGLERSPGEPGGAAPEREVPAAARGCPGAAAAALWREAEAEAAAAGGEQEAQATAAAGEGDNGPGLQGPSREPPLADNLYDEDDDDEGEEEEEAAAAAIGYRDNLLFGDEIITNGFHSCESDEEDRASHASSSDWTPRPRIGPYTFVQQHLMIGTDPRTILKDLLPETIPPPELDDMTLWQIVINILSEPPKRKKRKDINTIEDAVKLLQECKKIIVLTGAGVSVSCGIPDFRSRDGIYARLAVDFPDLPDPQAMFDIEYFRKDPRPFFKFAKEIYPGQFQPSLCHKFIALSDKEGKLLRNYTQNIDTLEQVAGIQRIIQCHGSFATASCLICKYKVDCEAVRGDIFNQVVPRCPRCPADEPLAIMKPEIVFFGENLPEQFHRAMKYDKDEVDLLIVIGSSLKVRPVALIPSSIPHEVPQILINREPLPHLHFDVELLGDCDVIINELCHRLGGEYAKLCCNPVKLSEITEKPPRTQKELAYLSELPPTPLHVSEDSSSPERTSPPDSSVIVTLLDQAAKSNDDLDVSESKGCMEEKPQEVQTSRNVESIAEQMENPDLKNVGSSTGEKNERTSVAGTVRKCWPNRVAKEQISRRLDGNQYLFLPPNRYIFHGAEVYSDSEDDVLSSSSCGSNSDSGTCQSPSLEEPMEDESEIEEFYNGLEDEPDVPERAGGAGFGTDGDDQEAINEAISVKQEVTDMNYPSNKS
Protocol: The continuous assay for comparing isoform specificity of S2P04 was performed using the universal fluorogenic sirtuin substrate described by Schuster et al.[41]. Briefly, the inhibition reactions were performed in 50-µL volumes at 37 °C in black, half-area, 96-well plates. The sirtuin enzyme (0.25 µM) was preincubated with different concentrations of the peptide S2P04 (0.0064–50 µM for SIRT1 and SIRT2, 0.5–100 µM for SIRT3) or TB (0.16–150 µM for SIRT1–SIRT3), and 1 mM NAD^+ in assay buffer (20 mM Tris, pH 7.8, 150 mM NaCl, 5 mM MgCl2, and 1 mM DTT) for 15 min. Following incubation, the reaction started with the addition of the fluorogenic substrate (5 µM), and product formation was monitored by measuring the fluorescence intensity every 20 s for 5 min (SIRT2) or 30 min (SIRT1 and SIRT3) in a BioTek Synergy H1 microplate reader at λex = 320 nm and λem = 408 nm (gain = 130 and read height = 7 mm). Initial rates of product formation were determined by a linear regression of the plot of fluorescence intensity vs. time and normalized relative to 0% (max inhibitor) and 100% (no inhibitor) controls. The assay was repeated to determine the IC50 values of all BuK peptides for SIRT2. IC50 values were determined by nonlinear regression of the plot of the normalized initial rate vs. inhibitor concentration using GraphPad Prism. The determined IC50 values are provided in Supplementary Table 2, and inhibition curves can be seen in Supplementary Fig. 20.

[2] = target: T2, SIRT2 (Homo sapiens, UniProt Q8IXJ6); assay: SIRT2 inhibition assay for thiomyristoyl peptides; type: biochemical
T2 sequence (Q8IXJ6 1-389): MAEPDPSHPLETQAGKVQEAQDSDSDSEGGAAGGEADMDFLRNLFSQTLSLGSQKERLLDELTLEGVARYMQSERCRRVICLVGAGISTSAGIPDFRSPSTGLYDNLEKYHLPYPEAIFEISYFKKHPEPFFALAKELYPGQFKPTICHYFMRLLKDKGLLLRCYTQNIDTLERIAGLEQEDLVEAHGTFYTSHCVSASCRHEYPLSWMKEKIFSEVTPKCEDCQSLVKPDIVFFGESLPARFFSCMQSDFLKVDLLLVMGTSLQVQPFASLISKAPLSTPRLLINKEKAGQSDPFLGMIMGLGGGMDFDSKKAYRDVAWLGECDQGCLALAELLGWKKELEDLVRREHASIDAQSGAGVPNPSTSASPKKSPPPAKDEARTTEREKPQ
Protocol: Assays were performed in 40-µL volumes at 37 °C in black, 384-well plates. […] Following incubation, the reaction started with the addition of the fluorogenic substrate (5 µM), and product formation was monitored by measuring the fluorescence intensity every 20 s for 5 min (SIRT2) in a BioTek Synergy H1 microplate reader at λex = 320 nm and λem = 408 nm (gain = 130 and read height = 7 mm). Initial rates were determined using the plot of fluorescence vs. time for linear portions of each curve. IC50 values were then determined using GraphPad Prism to fit a nonlinear regression to the normalized rates vs. inhibitor concentration.

[3] = target: T2, SIRT2; assay: SIRT2 inhibition assay, no preincubation; type: biochemical
Protocol: The inhibition assay was performed using a universal continuous sirtuin substrate. Assays were performed in 40-µL volumes at 37 °C in black, 384-well plates. Five micrometers of substrate was incubated with different concentrations of peptide or TM (0.5–1000 nM in DMF, 20% DMF final concentration) for 2 min in assay buffer (20 mM Tris, pH 7.8, 150 mM NaCl, 5 mM MgCl2, 1 mM DTT, and 1 mM NAD^+). Following incubation, the reaction started with the addition of SIRT2 (10 nM), and product formation was monitored by measuring the fluorescence intensity every 20 s for 10 min (SIRT2) in a BioTek Synergy H1 microplate reader at λex = 320 nm and λem = 408 nm (gain = 130 and read height = 7 mm). Initial rates were determined using the plot of fluorescence vs. time for linear portions of each curve. The IC50 value was determined using GraphPad Prism to fit a nonlinear regression to the normalized rates vs. inhibitor concentration (Supplementary Fig. 30).

[4] = test system: amber-obligate phagemid library; assay: Phage yield on expression of the amber-obligate phagemid library with ncAAs (cfu assay); set-up: species or system E. coli Top10; settings: BuKRS
[5] = target: FITC-conjugated S2P03; assay: fluorescence polarisation; SIRT2 serially diluted from 5 uM to 1 nM (24 uL) plus 1 uL of 250 nM FITC-peptide; 50 mM Tris, 137 mM NaCl, 2.7 mM KCl, 1 mM MgCl2, 1 mM DTT, 0.01% Triton X-100, pH 8.0; 37 C for 15-30 min; 384-well plate

CCCCCCCCCCCCCC(=S)NCCCC[C@H](NC(=O)[C@@H](NC(=O)[C@@H](NC(=O)[C@@H](N)CS)[C@@H](C)O)C(C)C)C(=O)N[C@H](C(=O)N[C@@H](CO)C(=O)N[C@@H](CC(C)C)C(N)=O)[C@@H](C)O [S2P03-tMyK] (H-CTV[Lys(thiomyristoyl)]TSL-NH2) showed an IC50 [1] of 400 ± 100 nM, an IC50 ([2]; 10 nM SIRT2, 15 min preincubation, 5 µM substrate, n = 2) of 10 ± 3 nM and an activity at 0.000465917 µM ([2]; inhibitor 0.465917 nM) of 102%. For the same molecule, the “%Activity, SIRT2” value ([2]; inhibitor 0.465917 nM, 0.000465917 µM) was 98.0615%, the “%Activity, SIRT2” value ([2]; inhibitor 0.931834 nM, 0.000931834 µM) was 113.937% and 81.1704% and the activity at 0.00186367 µM ([2]; inhibitor 1.86367 nM) was 99.7%. The “%Activity, SIRT2” value ([2]; inhibitor 1.86367 nM, 0.00186367 µM) was 95.1685%, the activity at 0.00372734 µM ([2]; inhibitor 3.72734 nM) was 96.6% and the “%Activity, SIRT2” value ([2]; inhibitor 3.72734 nM, 0.00372734 µM) was 82.1027%. The “%Activity, SIRT2” value ([2]; inhibitor 7.45468 nM, 0.00745468 µM) was 52.8299% and 73.9018%, the activity at 0.0149094 µM ([2]; inhibitor 14.9094 nM) was 40.8% and the “%Activity, SIRT2” value ([2]; inhibitor 14.9094 nM, 0.0149094 µM) was 45.2416%. For the same molecule, the “%Activity, SIRT2” value ([2]; inhibitor 477.099 nM, 0.477099 µM) was 3.151% and -3.151%, the “%Activity, SIRT2” value ([2]; inhibitor 954.198 nM, (Activity/Activity w/o inhibitor)*100, single trials, 0.954198 µM) was 11.9872% and 2.232% and the “change in IC50 without preincubation of enzyme” value [3] was “insignificant change in IC50”.

In the case of C/C=C/C(=O)NCCCC[C@H](N)C(=O)O [compound 6, N^Ɛ-crotonyl-L-lysine], the “fold increase in particle yield vs no ncAA” value [4] is reported as about 100 fold and the “Phage Yields, ncAA” value ([4]; Fig. 4e, single trials) is reported as 3.00E+09 CFU/mL.

B1: recombinant human SIRT2 (enzyme)
chain: MAEPDPSHPLETQAGKVQEAQDSDSDSEGGAAGGEADMDFLRNLFSQTLSLGSQKERLLDELTLEGVARYMQSERCRRVICLVGAGISTSAGIPDFRSPSTGLYDNLEKYHLPYPEAIFEISYFKKHPEPFFALAKELYPGQFKPTICHYFMRLLKDKGLLLRCYTQNIDTLERIAGLEQEDLVEAHGTFYTSHCVSASCRHEYPLSWMKEKIFSEVTPKCEDCQSLVKPDIVFFGESLPARFFSCMQSDFLKVDLLLVMGTSLQVQPFASLISKAPLSTPRLLINKEKAGQSDPFLGMIMGLGGGMDFDSKKAYRDVAWLGECDQGCLALAELLGWKKELEDLVRREHASIDAQSGAGVPNPSTSASPKKSPPPAKDEARTTEREKPQ
Molecule B1 has a Kd [5] of 49 nM.
